In one assay the test system is Candida albicans. Description: Antifungal disc diffusion, C. albicans. In kind it is cell-based. Particulars: Nil = zero inhibition. As for the experimental part: (§1) The ligand and its metal(II) complexes were evaluated for antimicrobial activity against two strains, gram-positive bacteria (Staphylococcus aureus and Staphylococcus faecalis), gram-negative bacteria (Escherichia coli and Pseudomonas aeruginosa) and pathogenic fungi (Candida albicans), using DMSO as a negative control. […] The antimicrobial activity of the tested samples was determined using a modified Kirby-Bauer disc diffusion method. All the synthesized compounds were dissolved to prepare a stock solution of 1 mg/mL using DMSO. Stock solution was aseptically transferred, and two-fold diluted to have solutions of different concentrations. The antibacterial and antifungal activities of test compounds were done by filter paper disc method[21] and the activities were determined by measuring the diameters of the inhibition zone (mm). Media with DMF was set up as a control. All cultures were routinely maintained on NA (nutrient agar) and incubated at 37 °C. The inoculums of bacteria were performed by growing the culture in NA broth at 37 °C for overnight. Approximately, 0.1 mL of diluted bacterial or fungal culture suspension was spread with the help of spreader on NA plates uniformly. Solutions of the tested compounds and reference drugs were prepared by dissolving 10 mg of the compound in 10 mL DMF. […]

Assay [1] is described as follows: DPPH radical scavenging assay. Particulars: for DPPH radical scavenging activity (% inhibition): Standard = ascorbic acid (vitamin C). In kind it is biochemical. On the procedure: The oxidative scavenging activity of the ligand and its complexes was evaluated by DPPH (4 mg/100 ml methanol) Zengin, et al.[16]. Briefly, equal volumes of different concentrations ([…], 0.1, 0.2, 0.3, 0.4 and 0.5 mg/mL DMSO) of the tested components were added to DPPH reagent using ascorbic acid as a reference. All the investigated tests were shaken and incubated at room temperature in the dark for 30 min. The decrease in DPPH radicals was evaluated at 490 nm using an ELISA reader. Each test was performed in triplicate. The radical scavenging power was estimated as a percentage of DPPH inhibition using the equation: %inhibition=[(A \, control-A \, sample)/A \, control]×100.

A short description of assay [2]: Nitric oxide scavenging assay (sodium nitroprusside / Griess reagent). Particulars: Standard = ascorbic acid. In kind it is biochemical. As for the experimental part:
The nitric oxide scavenging activity of the ligand and its complexes was evaluated following a reported procedure Padmaja, et al.[17]. […] The samples were added to 150 µL Griess reagent (1% sulfanilamide and 0.1% naphthyl ethylenediamine hydrochloride in 2.5% orthophosphoric acid) and incubated at 25 °C for 30 min. The absorbance (A) was read at 540 nm using an ELISA reader. The experiment was repeated in triplicate, and ascorbic acid was used as a standard. The scavenged activity of NO was calculated using the equation %inhibition=[(A \, control-A \, sample)/A \, control]×100.

Assay [3] can be described thus: Reducing power assay (ferricyanide, absorbance at 700 nm). The assay is classed as biochemical. The note with it: Standard = ascorbic acid. As for the experimental part: The reducing power capacity of the investigated compounds was evaluated by the method of Oyaizu[18]. Then, 0.5 mL of different concentrations ([…], 0.1, 0.2, 0.3, 0.4 and 0.5 mg/mL in DMSO) was added to 0.5 mL of sodium phosphate buffer (0.2 M, pH 6.6) and 0.5 mL of 1% potassium ferricyanide. The samples were incubated at 50 °C for 20 min. Then, 0.5 mL trichloroacetic acid (10%) was added and centrifuged at 3000 rpm for 15 min. The supernatant (1.0 mL) was incubated with 1.0 mL H2O2 and 0.2 mL of 1% ferric chloride for 30 min. The absorbance of the samples was measured at 700 nm. Ascorbic acid was used as a standard. An increase in the absorbance value indicates a higher reducing power.

In assay [4] the test system is red blood cell (RBC) membrane. Kind of assay: Membrane stabilization (antihemolytic) activity, hypotonic solution-induced RBC lysis. In kind it is cell-based, human. On the procedure: Anti-inflammatory activities were evaluated through the antihemolytic membrane stabilization effect of the ligand and its metal complexes using a red blood cell (RBC) membrane stabilization method. Fresh whole blood samples were collected in anticoagulant tubes from a healthy volunteer who was not treated with any nonsteroidal anti-inflammatory drugs (NSAIDs) for 2 weeks before the experiment. Erythrocytes were extracted by centrifugation at 3000 rpm for 5 min. The anticoagulated cells were washed 3 times with 0.9% saline and centrifuged at 3000 rpm for 10 min. An RBC suspension (40% v/v) was prepared using isotonic saline phosphate buffer (0.15 M NaCl and 10 mM sodium phosphate buffer, pH 7.4). One milliliter of phosphate buffer (0.15 M, pH 7.4) was added to one mL of various concentrations of the tested compounds (0.05, 0.1, 0.2, 0.3, 0.4 and 0.5 mg/mL DMSO) and 2 mL sodium chloride solution (0.25%). In the control tube, one distilled water was used instead of the tested compounds. Different concentrations of nonsteroidal anti-inflammatory drug (diclofenac potassium) were used as standards. Then, 100 µL of RBC suspension was added to each tube and incubated at room temperature for 60 min. After incubation, the samples were centrifuged for 10 min at 3000 rpm. The absorbance of the supernatant was detected at 540 nm using an ELISA reader. The inhibition of hemolysis in the samples was evaluated according to the equation: %Inhibition \, of \, hemolysis=A \, control-A \, sample/A \, control×100.

The subject of assay [5] is Acetylcholinesterase (AChE). Description: AChE inhibition (Ellman method, brain homogenate). In kind it is biochemical. The note with it: Standard = donepezil. On the procedure: Acetylcholinesterase (AChE) activity was evaluated according to a previously reported method. Briefly, 10 μL of different concentrations of the tested compounds (test) or organic solvent (control) was added to 130 μL of phosphate buffer (pH 7.4, 0.1 M) and 20 μL of brain homogenate and then incubated at 37 °C for 45 min. Then, 5 μL of […] (75 mM) was added and incubated for 15 min at 37 °C. After incubation, […] of 0.32 mM DTNB was added. […] The percent inhibition of AChE was calculated as follows: %inhibition \, of \, […]=[A \, control--A \, sample/A \, control]×100.

In the next assay the test system is Escherichia coli. Description: Antimicrobial disc diffusion, E. coli. In kind it is cell-based. Particulars: Nil = zero inhibition. As for the experimental part:
as §1

Another assay deals with Pseudomonas aeruginosa. Description: Antimicrobial disc diffusion, P. aeruginosa. In kind it is cell-based. The note with it: Nil = zero inhibition. On the procedure:
as §1

Another assay relates to Staphylococcus aureus. Description: Antimicrobial disc diffusion, S. aureus. In kind it is cell-based. Particulars: Nil = zero inhibition. On the procedure: as §1
A further assay has as its system Staphylococcus faecalis. Description: Antimicrobial disc diffusion, S. faecalis. The note with it: Nil = zero inhibition. The assay is classed as cell-based. As for the experimental part: as §1
[6] abbreviates: Homo sapiens, Erythrocyte, read-out: Inhibition of RBC hemolysis (membrane stabilization).

Consider `C[C@@H]1[C@H](O)[C@@H](C)/C=C/C=C/C=C/C=C/C=C/C=C/C=C/[C@H](O[C@@H]2O[C@H](C)[C@@H](O)[C@H](N)[C@@H]2O)C[C@@H]2O[C@](O)(C[C@@H](O)C[C@@H](O)[C@H](O)CC[C@@H](O)C[C@@H](O)CC(=O)O[C@H]1C)C[C@H](O)[C@H]2C(=O)O` [Amphotericin B, reference compound], for which the Inhibition zone diameter in the assay with Candida albicans worked out at 20 mm/mg sample.

As for `Oc1ccc2ccccc2c1/C=N/c1ccc(Cc2ccc(/N=C/c3c(O)ccc4ccccc34)cc2)cc1` [Ligand], the “DPPH radical scavenging activity (% inhibition)” value in assay [1] (0.05 mg/mL) stood at 11.5 ± 0.95%; in [1] (0.1 mg/mL) it was 17.53 ± 0.85%; in assay [1] (0.2 mg/mL), 25.33 ± 0.81%; in [1] (0.3 mg/mL), 31.13 ± 0.65%; in assay [1] (0.4 mg/mL), 38.83 ± 0.81%; in assay [1] (0.5 mg/mL) it was 44.43 ± 0.70%. For the same molecule, the “NO scavenging (% inhibition)” value is given as 15.8 ± 0.78% in assay [2] (0.05 mg/mL); 21.37 ± 1.38% in assay [2] (0.1 mg/mL); 27.13 ± 1.58% in [2] (0.2 mg/mL); 37.27 ± 0.97% in [2] (0.3 mg/mL); 42.7 ± 1.78% in assay [2] (0.4 mg/mL); 47.65 ± 1.49% in assay [2] (0.5 mg/mL). The “Reducing power (absorbance at 700 nm)” value came to 0.10 ± 0.01 in [3] (0.05 mg/mL); 0.13 ± 0.001 in assay [3] (0.1 mg/mL); 0.17 ± 0.01 in assay [3] (0.2 mg/mL); 0.20 ± 0.01 in [3] (0.3 mg/mL); 0.23 ± 0.001 in assay [3] (0.4 mg/mL); 0.29 ± 0.01 in assay [3] (0.5 mg/mL). Also, the inhibition at 50 µg/mL in assay [4] (setting [6]) worked out at 11.8 ± 1.01%. Also, the inhibition at 100 µg/mL in [4] (setting [6]) came out at 19.8 ± 0.75%. In addition, the inhibition at 200 µg/mL in assay [4] (setting [6]) amounted to 26.9 ± 0.44%. Besides, the inhibition at 300 µg/mL in assay [4] (setting [6]) stood at 32.7 ± 0.8%. For the same molecule, the inhibition at 400 µg/mL in assay [4] (setting [6]) stood at 38.5 ± 1.16%. For the same molecule, the inhibition at 500 µg/mL in [4] (setting [6]) stood at 43.4 ± 0.68%. Further, the AChE percent inhibition turned out to be 17.70 ± 1.04% in assay [5] (0.05 mg/mL); 21.83 ± 1.5% in assay [5] (0.1 mg/mL); 27.27 ± 1.16% in assay [5] (0.2 mg/mL); 32.90 ± 1.61% in assay [5] (0.3 mg/mL); 38.57 ± 1.0% in [5] (0.4 mg/mL); 41.97 ± 1.08% in assay [5] (0.5 mg/mL). Besides, the Inhibition zone diameter result in the assay on Escherichia coli, in the assay on Pseudomonas aeruginosa, in the assay with Staphylococcus aureus, in the assay with Staphylococcus faecalis and with Candida albicans was “Nil” throughout.

`CN(C)[C@@H]1C(O)=C(C(N)=O)C(=O)[C@@]2(O)C(O)=C3C(=O)c4c(O)cccc4[C@@](C)(O)[C@H]3C[C@@H]12` [Tetracycline, reference compound]: the Inhibition zone diameter is 32 mm/mg sample with Escherichia coli, 33 mm/mg sample in the assay on Pseudomonas aeruginosa, 32 mm/mg sample in the assay with Staphylococcus aureus and 33 mm/mg sample in the assay with Staphylococcus faecalis.

In the case of `O=C1O[C@H]([C@@H](O)CO)C(O)=C1O` [ascorbic acid, reference compound], in assay [1], the “DPPH IC50” value amounted to 145 µg/mL.

Consider `O=C([O-])Cc1ccccc1Nc1c(Cl)cccc1Cl.[K+]` [diclofenac potassium, reference compound], for which the “Antihemolytic activity toward RBCs IC50” value in assay [4] (hypotonic solution-induced lysis) amounted to 120 µg/mL.

For the origin of these results see PMC9729294 (Scientific Reports, 2022).
